In patent US5854240A, “Methylene blue for the treatment or prophylaxis of encephalopathy caused by ifosfamide” (Newcastle University Ventures Limited, priority 1993, dated 1998):
Where “and” joins values, the source holds several entries; their conditions need not be identical. Equal entries are not always repeated. Entries after “also recorded” stand apart in the source; their conditions may differ.

Tests used:
[1] = intravenous ifosfamide; Martindale, 28th Edition, 1982; cited from earlier work
[2] = test system: metastatic leiomyosarcoma; experiment: Tumour response to chemotherapy, leiomyosarcoma patient; type: in vivo, human; conditions: Example 3; 1990, ifosfamide, adriamycin and dacarbazine, three cycles
Procedure: (§1) In 1990, a patient with metastatic leiomyosarcoma was treated for lung metastases with ifosfamide, adriamycin and dacarbazine. They had three cycles of therapy at the time.
(§2) In the second and third cycles, their dose of ifosfamide was 2 g/m^2 for three days.

[3] = CNS toxicity/encephalopathy in patients on ifosfamide without methylene blue; type: in vivo, human
Procedure: (§3) A patient diagnosed with advanced metastatic osteosarcoma began a five day chemotherapy regime. Treatment consisted of a total dosage of 12 g/m^2 ifosfamide with 80% (by weight, based on the weight of ifosfamide) mesna and adriamycin (65 mg/m^2) divided into two doses. They also received ZOFRAN™ brand ondansetron (antiemetic), 8 mg, by intravenous injection and 200 mg pyritinol three times per day orally. All parenteral medicaments were given in a total of 2 liters 5% glucose solution.
as §1, §2
(§4) At the request of the inventors, an independent clinical analysis was performed at the Northern Centre for Cancer Treatment, Newcastle Upon Tyne, United Kingdom, on a patient using a combintation of ifosfamide and methylene blue. A patient was diagnosed with adenocarcinoma of the oesophagus. They began chemotherapeutic treatment and was administered ifosfamide, Mitomycin C, and cisplatin. […] The patient eventually recovered. Upon administration of a third cycle of treatment, the patient was also given a prophylactic dosage of methylene blue.

[4] = GCMS analysis of urine of patient receiving ifosfamide and methylene blue; type: in vivo, human
Procedure: 100 ml of urine from a patient having had received methylene blue (300 mg/day) and ifosfamide (3 mg/kg daily) was analysed. The urine was refluxed for 30 minutes with 2M hydrochloric acid in ethanol (50 ml). After sufficient heating, 50 mls each of H2 O and […] hexane were added, the mixture shaken. The organic phase was then reduced to dryness in vacuo on a rotary evaporator. The dry residue was reconstituted in 1M hexane (10 ml) and 1 μl aliquots were submitted to gas chromatography-mass spectrometry analysis (GCMS). A 16 meter OV-17 capillary column was used with a temperature programme set for 40° C. for 1 minute, 5° C. per minute gradient to 250° C. and 250° C. for 10 minutes. Electron impact mass spectra were obtained on the resulting chromatographic peaks of interest (See A, B, and C of FIG. 1). These peaks were analysed through a Fisons Autospec Q MASS LIB GCMS computer library of mass spectra developed by the Department of Organic Chemistry, University of Berne, Switzerland of known organic compounds (FIGS. 2-4).

[5] = test system: non small cell lung cancer; experiment: Tumour response to chemotherapy, non small cell lung cancer patients; type: in vivo, human; conditions: Example 4; ifosfamide, VP-16, methylene blue; four cycles
Procedure: (§5) A patient was diagnosed with non small cell lung cancer. They later developed brain, lung and mediastinal and bone metastases. The course of treatment included surgery, irradiation of the brain and chemotherapy. Dosage amounts for chemotherapy were as follows: ifosfamide (1 g/m^2) given intravenously for days 1-3; mesna 60% of intravenous ifosfamide dosage plus 800 mg orally twice daily for days 1-3; VP-16 (100 mg) given orally for days 1-8 and methylene blue (50 mg) was administered orally as a loading dose on day 1, with 3×50 mg administered orally on days 1-4.
(§6) A patient was diagnosed with non small cell lung cancer with extensive mediastinal lymphnode metastases. They were originally prescribed a course of cisplatinum, VP-16 and velbe. […] Oral ifosfamide, VP-16, and methylene blue was then ordered, using the same dosage requirements as described in Example 4 above.

[6] = Nitrobenzyl pyridine (NBP) test of urine for alkylating metabolites of ifosfamide; type: in vivo, human
metastatic osteosarcoma = experiment: Tumour response to chemotherapy, osteosarcoma patient; type: in vivo, human; conditions: Example 2; ifosfamide/adriamycin chemotherapy with methylene blue prophylaxis
Procedure: as §3
(§7) After three weeks from the end of the first cycle, the patient who was the subject of Example 1 again was given the same chemotherapeutic regime, except that this time they received 50 mg oral capsules of methylene blue prophylactically three times a day for the full course of treatment.

small cell lung cancer = experiment: Tumour response to chemotherapy, small cell lung cancer patients; type: in vivo, human
Description: (§8) They received six cycles of ifosfamide treatment using the identical dosage requirements as in Example 4.
(§9) A patient was diagnosed with extensive small cell lung cancer with pleural effusion. Patient was prescribed ifosfamide/Vp-16/methylene blue treatment.

plasma amine oxidase = experiment: Inhibition of plasma amine oxidase (2-chlorethylamine oxidation to chloracetaldehyde, GC); type: biochemical; conditions: methylene blue 50 μM; 2-chlorethylamine 100 μg/ml; human or bovine plasma, 36° C., 1 hour
Procedure: Human or bovine plasma (2.0 ml) containing 2-chlorethylamine (100 μg/ml) was incubated in a shaking water bath at 36° C. for 1 hour. Aliquots (5 μl) were directly injected in to a Tenax packed gas chromatographic column maintained at 120° C. in a Perkin Elmer 3920B gas chromatograph. The product of 2-chlorethylamine oxidation by plasma amine oxidase, 2-chloracetaldehyde, was eluted at 9 minutes retention time. External calibration curves were used to determine concentrations of resulting chloracetaldehyde. […] The methylene blue is thus able to reduce the formation of chloracetaldehyde from 2-chlorethylamine by the plasma to 20% of that observed in the absence of methylene blue.

[7] = Therapeutic rescue of ifosfamide encephalopathy with methylene blue in a patient; type: in vivo, human; conditions: Example 1
Procedure: as §3
50 mg methylene blue, formulated at 2% w/v in water for injections, was administered by slow intravenous injection.
About 4 hours later, the 50 mg methylene blue dose was repeated to consolidate the earlier treatment.

[8] = Prophylaxis of ifosfamide encephalopathy with methylene blue in patients; type: in vivo, human
Procedure: as §7
With the following treatment, they received four 50 mg doses of oral methylene blue. Their cytotoxic chemotherapy comprised three 3.2 g doses of ifosfamide (6 g/m^2 total dose) split over 3 days. The ifosfamide was administered as a continuous infusion with mesna. They also received 50 mg/m^2 adriamycin in two separate doses on days 2 and 3. Additionally,they received pyritinol (200 mg) twice per day on each day of the four day treatment.
as §5, §8, §6
A patient with non small cell lung cancer with involvment of the thoracic wall and retroperitoneal disease began one cycle of ifosfamide/methylene blue chemotherapy.
as §9, §4

[9] = Urinary excretion of pyritinol and its metabolites in patients; type: in vivo, human
Description: It is believed that pyritinol elevates intracellular thiol concentrations thereby detoxifying the chloroethyl metabolites formed by ifosfamide. Pyritinol is metabolised by reduction of its centralised disulfide bond, presumably by glutathione reductase or a similar enzyme using GSH as its cofactor. Pyritinol is also known to be metabolised by S-methylation and S-oxidation into the following metabolites: [drawing 12] These metabolites are the excretable forms of pyritinol in urine. In patients not receiving ifosfamide treatment, virtually 100% of pyritinol will be excreted in its metabolised form into the urine. […] As was previously mentioned, without GSH as a cofactor, glutathione reductase is unable to reduce pyritinol into its metabolised form. It is therefore a further aspect of this invention to use the excretion of unmetabolised pyritinol as a biochemical marker for the onset of encephalopathy upon administration of ifosfamide.

[10] = Example 5, ifosfamide as in Example 4, six cycles
[11] = Example 3, ifosfamide + methylene blue, first cycle

O=P1(NCCCl)OCCCN1CCCl (stereo not drawn) [ifosfamide, N,3-bis(2-chloroethyl)tetrahydro-2H-1,3,2-oxazaphosphorin-2-amine 2-oxide]
patients experiencing CNS side effects, especially confusion and lethargy [1]: about 10%
remission [2]: complete remission of the lung metastases
signs of encephalopathy on ifosfamide ([3]; Example 1, 12 g/m^2 total ifosfamide, mesna, adriamycin, day three and next morning, before methylene blue): displayed signs of encephalopathy-type hallucinations; also recorded: still drowsy, disorientated and confused
encephalopathy on ifosfamide ([3]; Example 3, 1990, first cycle, ifosfamide, adriamycin and dacarbazine): mild encephalopatic signs (such as confusion and amnesia) short of psychosis
encephalopathy on ifosfamide ([3]; Example 3, 1990, second cycle, ifosfamide 2 g/m^2 for three days): psychotic and somnolent
encephalopathy on ifosfamide ([3]; Example 3, 1990, third cycle, ifosfamide 2 g/m^2 for three days): severely psychotic and had hallucinations which continued not only after the end of the cycle but also after discharge from hospital
encephalopathy on ifosfamide ([3]; Example 9, ifosfamide, Mitomycin C and cisplatin, following second cycle): developed ifosfamide encephalopathy, becoming drowsy and confused
urinary metabolites identified by GCMS ([4]; Example 10, methylene blue 300 mg/day and ifosfamide 3 mg/kg daily, urine refluxed with HCl in ethanol): 2,2,2-trichlorethanal and 3-chloroproprionic acid ethyl ester and trichloracetic acid ethyl ester
novel urinary metabolites among patients treated with ifosfamide and methylene blue ([4]; patients treated with both ifosfamide and methylene blue): 2,2,2-trichlorethanol and trichloracetic acid and 3-chlorproprionic acid
outcome [5]: died 6 months later due to tumour progression
NBP test of urine for alkylating metabolites of ifosfamide ([6]; Example 1, first cycle): positive
NBP test of urine for alkylating metabolites ([6]; Example 2, second cycle, with methylene blue): present
lung metastases (lung scan) (metastatic osteosarcoma): lung metastases were almost gone
Lambert/Eaton Syndrome (small cell lung cancer; [10]): rapidly improved
remission (small cell lung cancer; [10]): good partial remission
remission (small cell lung cancer; Example 8, ifosfamide/Vp-16/methylene blue, after six cycles): partial remission of the lung, lymphnode and liver metastases
remission (small cell lung cancer; Example 8, ifosfamide/Vp-16/methylene blue, after three cycles): partial remission in the primary and lymphnode metastases

CN(C)c1ccc2nc3ccc(N(C)C)cc3[s+]c2c1.[Cl-] [methylene blue, 3,7-bis(dimethylamino)phenothiazin-5-ium chloride]
formation of chloracetaldehyde from 2-chlorethylamine by the plasma, relative to that in absence of methylene blue (plasma amine oxidase): 20%
inhibition of plasma amine oxidase by methylene blue (plasma amine oxidase): 80%
symptoms of encephalopathy next day ([7]; 50 mg dose repeated about 4 hours later, next day): no signs of confusion or other symptoms of encephalopathy
malaise and nausea after methylene blue ([7]; 50 mg slow intravenous injection, after 1 hour): The malaise and nausea which they had previously experienced were gone
patient's condition after methylene blue ([7]; 50 mg slow intravenous injection, after 1 hour, continued ifosfamide infusion): much calmer, coherent and able to articulate the fearful nature of their hallucinations
sleep/condition after repeated dose ([7]; second 50 mg dose, that night and next day): slept well and was much better the next day
disturbed nights during treatment ([8]; Example 2, 50 mg oral capsules three times a day prophylactically): no disturbed nights
symptoms of encephalopathy during prophylactic treatment ([8]; Example 3, four 50 mg oral doses, ifosfamide 6 g/m^2 total over 3 days, mesna, adriamycin, pyritinol, first cycle): no symptoms of encephalopathy were recorded during treatment
episodes of vomiting [8, 11]: one
malaise [8, 11]: no malaise
signs of encephalopathy during prophylactic treatment ([8]; Example 4, 50 mg oral loading dose day 1, 3×50 mg oral days 1-4, four cycles): No signs of encephalopathy after four cycles
signs of encephalopathy during prophylactic treatment ([8]; Example 5, dosage as in Example 4, six cycles): no signs of encephalopathy
signs of encephalopathy during prophylactic treatment ([8]; Example 6, oral ifosfamide, VP-16 and methylene blue, dosage as in Example 4, six cycles): Absolutely no signs of encephalopathy
CNS toxicity during prophylactic treatment ([8]; Example 7, dosage as in Example 4, one cycle): No CNS toxicity was exhibited
symptoms associated with encephalopathy during prophylactic treatment ([8]; Example 8, dosage as in Examples 4-7, six cycles): never developed the symptoms associated with encephalopathy
signs of encephalopathy during prophylactic treatment ([8]; Example 9, prophylactic methylene blue in third cycle, ifosfamide, Mitomycin C, cisplatin): no further signs of encephalopathy
patient's condition during prophylactic treatment ([8]; Example 9, third cycle): remained conscious and alert throughout treatment

Cc1ncc(CSSCc2cnc(C)c(O)c2CO)c(CO)c1O [pyritinol]
form of pyritinol excreted in urine upon addition of methylene blue ([9]; ifosfamide plus methylene blue, leucomethylene blue or similar compound): metabolised forms of pyritinol will subsequently be excreted in the urine
form of pyritinol excreted in urine upon ifosfamide ([9]; upon administration of ifosfamide): solely in its unmetabolised non-reduced form
